Converted amounts (≈) assume the structure as drawn.
Tests used:
[1] = system: MGC 803 (human gastric cancer cell); assay: MTT growth inhibition of human solid tumor cells, 72 h; format: cell-based; conditions: MGC-803, 72 h
How it was run: (§1)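 Readout is viable cell concentration after exposure to graded doses of the 2-substituted methylene tanshinone I analogues. Plating used 4000 cells per well in serum-supplemented (10% FBS) high-glucose DMEM, with a 24 h pre-culture at 37° C under 5% CO2.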

A549 (human lung cancer) = assay: as above; format: cell-based; conditions: A549, 72 h
How it was run: as §1

[2] = system: U87 MG (malignant glioma cell); assay: as above; format: cell-based; conditions: U87-MG, 72 h
How it was run: as §1

PC-3 (prostate cancer) = assay: as above; format: cell-based; conditions: PC-3, 72 h
How it was run: as §1

[3] = system: Hep-2 (laryngeal carcinoma); assay: as above; format: cell-based; conditions: HeP-2, 72 h
How it was run: as §1

[4] = system: Hep G2 (human liver cancer cell); assay: as above; format: cell-based; conditions: Hep G2, 72 h
How it was run: as §1

[5] = system: RKO (human colon adenocarcinoma cell); assay: as above; format: cell-based
How it was run: as §1

[6] = system: PANC-1 (pancreatic cancer); assay: as above; format: cell-based; conditions: PANC-1, 72 h
How it was run: as §1

[7] = system: CNE (nasopharyngeal carcinoma cell); assay: as above; format: cell-based
How it was run: as §1

MG63 (osteosarcoma) = assay: as above; format: cell-based; conditions: MG-63, 72 h
How it was run: as §1

[8] = system: SK-OV-3 (ovarian cancer cell); assay: as above; format: cell-based; conditions: SK-OV-3, 72 h
How it was run: as §1

[9] = system: Hela (human cervical cancer cell); assay: as above; format: cell-based; conditions: Hela, 72 h
How it was run: as §1

[10] = system: CaES-17 (esophageal cancer cell); assay: as above; format: cell-based; conditions: CaEs-17, 72 h
How it was run: as §1

[11] = system: Becap37 (human breast cancer cell); assay: as above; format: cell-based; conditions: Becap-37, 72 h
How it was run: as §1

[12] = background statement; cited from earlier work
tumor-bearing nude mice = conditions: literature; cited from earlier work
[13] = system: NB4 (acute promyelocytic leukemia, AML); assay: MTT growth inhibition of leukemia cells, 72 h; format: cell-based, human; conditions: NB4, 72 h
How it was run: (§2)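 Leukemia cells were seeded at 6000 per well in RPMI-1640 with 10% fetal bovine serum. Tanshinone I derivatives, from 10 mg/mL DMSO stocks diluted in medium, were added at various concentrations on the following day. After 72 h at 37 °C under 5% CO2, viable cells were measured by MTT.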

[14] = system: Jurkat (acute lymphoblastic leukemia, ALL); assay: MTT growth inhibition of leukemia cells, 72 h; format: cell-based, human; conditions: 72 h
How it was run: as §2

[15] = system: Kasumi-1 (acute myeloid leukemia M2 type, AML-M2); assay: MTT growth inhibition of leukemia cells, 72 h; format: cell-based, human; conditions: Kasumi-1, 72 h
How it was run: as §2

[16] = system: K562/adr (drug-resistant, chronic myeloid leukemia, CML); assay: MTT growth inhibition of leukemia cells, 72 h; format: cell-based, human; conditions: K562/ADR
How it was run: as §2

[17] = system: H9 (acute lymphoblastic leukemia, ALL); assay: MTT growth inhibition of leukemia cells, 72 h; format: cell-based, human; conditions: H9, 72 h
How it was run: as §2

[18] = background statement; cited from earlier work; remark: listed apart in the source
Hep G2 cells = conditions: in vitro, literature; cited from earlier work
[19] = system: RPMI8226 (multiple myeloma); assay: MTT growth inhibition of multiple myeloma cells, 72 h; format: cell-based, human; conditions: RPMI 8226, 72 h
How it was run: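 RPMI8226 myeloma cells, 6000 per well in 1640 medium with 10% FBS, exposed to compounds at a range of concentrations (diluted from 10 mg/mL DMSO stock) for 72 h at 37° C, 5% CO2. Viable cells then determined by MTT.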

[20] = system: SGC-7901 human gastric adenocarcinoma cells; conditions: concentration dependent within a certain range, literature; cited from earlier work

Compound: Cc1coc2c1C(=O)C(=O)c1c-2ccc2c(C)cccc12 [TA, 1,6-dimethyl-phenanthreno [1,2-b]furan-10,11-diketone, reference compound]
- IC50 [1]: 1.62 µg/mL (≈ 5.86 µM)
- IC90 [1]: 9.26 µg/mL (≈ 33.5 µM)
- IC50 (A549 (human lung cancer)): 4.03 µg/mL (≈ 14.6 µM)
- IC90 (A549 (human lung cancer)): 17.29 µg/mL (≈ 62.6 µM)
- IC50 [2]: 6.36 µg/mL (≈ 23 µM)
- IC90 [2]: 14.63 µg/mL (≈ 53 µM)
- IC50 (PC-3 (prostate cancer)): 6.63 µg/mL (≈ 24 µM)
- IC90 (PC-3 (prostate cancer)): 10.57 µg/mL (≈ 38.3 µM)
- IC50 [3]: 3.15 µg/mL (≈ 11.4 µM)
- IC90 [3]: >16 µg/mL
- IC50 [4]: 2.19 µg/mL (≈ 7.93 µM)
- IC90 [4]: 22.13 µg/mL (≈ 80.1 µM)
- IC50 [5]: 1.83 µg/mL (≈ 6.62 µM)
- IC90 [5]: >16 µg/mL
- IC50 [6]: 2.7 µg/mL (≈ 9.77 µM)
- IC90 [6]: >16 µg/mL
- IC50 [7]: 7.4 µg/mL (≈ 26.8 µM)
- IC90 [7]: >16 µg/mL
- IC50 (MG63 (osteosarcoma)): 0.96 µg/mL (≈ 3.47 µM)
- IC90 (MG63 (osteosarcoma)): >16 µg/mL
- IC50 [8]: >16 µg/mL
- IC90 [8]: >16 µg/mL
- IC50 [9]: 4 µg/mL (≈ 14.5 µM)
- IC90 [9]: >16 µg/mL
- IC50 [10]: 3.18 µg/mL (≈ 11.5 µM)
- IC90 [10]: 16.00 µg/mL (≈ 57.9 µM)
- IC50 [11]: 3.03 µg/mL (≈ 11 µM)
- IC90 [11]: >16 µg/mL
- solubility in water [12]: poor solubility in water
- tumor growth in tumor-bearing nude mice (tumor-bearing nude mice): can inhibit the tumor growth in the mice
- IC50 [13]: 0.98 µg/mL (≈ 3.55 µM)
- IC90 [13]: 2.50 µg/mL (≈ 9.05 µM)
- IC50 [14]: 1.74 µg/mL (≈ 6.3 µM)
- IC90 [14]: 8.42 µg/mL (≈ 30.5 µM)
- IC50 [15]: 0.99 µg/mL (≈ 3.58 µM)
- IC90 [15]: 3.62 µg/mL (≈ 13.1 µM)
- IC50 [16]: 0.88 µg/mL (≈ 3.19 µM)
- IC90 [16]: 4.17 µg/mL (≈ 15.1 µM)
- IC50 [17]: 3.5 µg/mL (≈ 12.7 µM)
- IC90 [17]: 13.06 µg/mL (≈ 47.3 µM)
- in vivo bioavailability [18]: low in vivo bioavailability
- proliferation of Hep G2 cells (Hep G2 cells): can inhibit the proliferation of Hep G2 cells
- IC50 [19]: 0.96 µg/mL (≈ 3.47 µM)
- IC90 [19]: 10.86 µg/mL (≈ 39.3 µM)
- growth of SGC-7901 cells cultured in vitro [20]: significant inhibitory effect

Reference: patent publication US9328083B2, “2-aminated methylene or 2-esterified methylene tanshinone derivatives, and preparation method and application thereof” (HANGZHOU BENSHENG PHARMACEUTICAL CO., LTD., priority 2011, dated 2016)
